Results on five compounds are retold here after ChEMBL document CHEMBL3994674, “Toward Resolving the Resveratrol Conundrum: Synthesis and in Vivo Pharmacokinetic Evaluation of BCP-Resveratrol” (ACS Med Chem Lett, 2017).

A short description of data set [1]: Drug level in human hepatocytes treated with resveratrol at 5 uM by LC-MS/MS analysis. The format is ADME, cell-based, Hepatocyte.
The nature of data set [2]: Apparent intrinsic clearance in human hepatocytes assessed per million cells at 5 uM by LC-MS/MS analysis. The data set is classed as ADME, cell-based, Hepatocyte.
Data set [3] in a line: Cmax in Sprague-Dawley rat at 20 mg/kg, po administered as single dose via gavage after 5 mins by HPLC-MS analysis. The format is ADME, organism-based. Also noted: dose 20 mg/kg, route oral. The following applies: in vivo.
A short description of data set [4]: Plasma concentration in Sprague-Dawley rat at 20 mg/kg, po administered as single dose via gavage up to 4 hrs by HPLC-MS analysis. The format is ADME, organism-based.
Data set [5] is described as follows: Octanol/phosphate buffer partition co-efficient, log D of the compound at 75 uM at pH 7.4 after 2 hrs by LC-Ms/MS based shake-flask method. The format is physicochemical.
The nature of data set [6]: AUC (0 to last) in Sprague-Dawley rat at 20 mg/kg, po administered as single dose via gavage after 4 hrs by HPLC-MS analysis. The format is ADME, organism-based. Also noted: dose 20 mg/kg, route oral, time 0 - last. The following applies: in vivo.
The nature of data set [7]: Apparent intrinsic clearance in rat hepatocytes assessed per million cells at 5 uM by LC-MS/MS analysis. The data set is classed as ADME, cell-based, Hepatocyte.
Data set [8] can be described thus: Apparent clearance in Sprague-Dawley rat at 20 mg/kg, po administered as single dose via gavage by HPLC-MS analysis. The format is ADME, organism-based. The following applies: in vivo.
Data set [9] can be described thus: Half life in rat hepatocytes at 5 uM by LC-MS/MS analysis. The format is ADME, cell-based, Hepatocyte.
Data set [10] concerns MDA-MB-231. The data set is described as follows: Cytotoxicity against human MDA-MB-231 cells assessed as growth inhibition at 30 uM after 72 hrs by CellTitre-Glo luminescent assay relative to control. The format is functional. The settings on record: MDA-MB-231, 72 h, read-out: GI.
Data set [11] relates to MIA PaCa-2. The data set is described as follows: Cytotoxicity against human MIAPaCa2 cells assessed as growth inhibition at 30 uM after 72 hrs by CellTitre-Glo luminescent assay relative to control. The format is functional. The settings on record: MIA PaCa-2, 72 h, read-out: GI.
Data set [12] deals with SU-DHL10. The data set can be described thus: Cytotoxicity against human SU-DHL10 cells assessed as growth inhibition at 30 uM after 72 hrs by CellTitre-Glo luminescent assay relative to control. The format is functional. The following applies: SU-DHL10, 72 h, read-out: GI.
Data set [13] is described as follows: Tmax in Sprague-Dawley rat at 20 mg/kg, po administered as single dose via gavage by HPLC-MS analysis. The data set is classed as ADME, organism-based. The following applies: in vivo.
The nature of data set [14]: Half life in Sprague-Dawley rat at 20 mg/kg, po administered as single dose via gavage by HPLC-MS analysis. The data set is classed as ADME, organism-based. The following applies: in vivo.
A short description of data set [15]: Half life in human hepatocytes at 5 uM by LC-MS/MS analysis. The data set is classed as ADME, cell-based, Hepatocyte.
The nature of data set [16]: Thermodynamic solubility in pH 7.4 PBS at 10 mg/ml after 1 hr by LC-Ms/MS based shake flask method. The format is physicochemical. The following applies: read-out: Therm_solubility.
For data set [17], the system named is SU-DHL10. The data set can be described thus: Cytotoxicity against human SU-DHL10 cells assessed as growth inhibition after 72 hrs by CellTitre-Glo luminescent assay. The format is functional. The settings on record: SU-DHL10, 72 h.
Data set [18] has as its system MDA-MB-231. The data set can be described thus: Cytotoxicity against human MDA-MB-231 cells assessed as growth inhibition after 72 hrs by CellTitre-Glo luminescent assay. The following applies: MDA-MB-231, 72 h. The format is functional.
The subject of data set [19] is MIA PaCa-2. The data set is described as follows: Cytotoxicity against human MIAPaCa2 cells assessed as growth inhibition after 72 hrs by CellTitre-Glo luminescent assay. The data set is classed as functional. The settings on record: MIA PaCa-2, 72 h.
Data set [20] is described as follows: Cmax in CD rat at 50 mg/kg/day, po administered via gavage every 24 hrs for 14 consecutive days measured on day 1 post dose by HPLC-MS analysis. The format is ADME, organism-based. Also noted: dose 50 mg/kg/day, route oral. The settings on record: in vivo.
The nature of data set [21]: Drug metabolism in human hepatocytes assessed as resveratrol-sulfate formation at 5 uM by LC-MS/MS analysis. The format is ADME, cell-based, Hepatocyte.
Data set [22] can be described thus: Apparent clearance in Wistar rat at 20 mg/kg, po by HPLC-MS analysis. The following applies: in vivo. The format is ADME, organism-based.
A short description of data set [23]: Tmax in Wistar rat at 20 mg/kg, po by HPLC-MS analysis. The format is ADME, organism-based. The following applies: in vivo.
A short description of data set [24]: Half life in Wistar rat at 20 mg/kg, po by HPLC-MS analysis. The data set is classed as ADME, organism-based. The following applies: in vivo.
A short description of data set [25]: AUC (0 to last) in Wistar rat at 20 mg/kg, po by HPLC-MS analysis. The data set is classed as ADME, organism-based. The arrangement: dose 20 mg/kg, time 0 - last, route oral. The following applies: in vivo.
Data set [26] in a line: Cmax in Wistar rat at 20 mg/kg, po by HPLC-MS analysis. The data set is classed as ADME, organism-based. Also noted: dose 20 mg/kg, route oral. The settings on record: in vivo.
The nature of data set [27]: Cmax in CD rat at 50 mg/kg/day, po administered via gavage every 24 hrs for 14 consecutive days measured on day 14 post dose by HPLC-MS analysis. The data set is classed as ADME, organism-based. Also noted: dose 50 mg/kg/day, route oral. The following applies: in vivo.
A short description of data set [28]: Drug metabolism in human hepatocytes assessed as resveratrol-glucuronide formation at 5 uM by LC-MS/MS analysis. The format is ADME, cell-based, Hepatocyte.

SMILES strings stand for the structures. Converted amounts (≈) assume the structure as drawn.

With `O=S(=O)(O)Oc1ccc(/C=C/c2cc(O)cc(O)c2)cc1`, in data set [1], the Drug metabolism entry is on record as “Metabolite_Detected”.

Take `O=C(O)[C@H]1O[C@@H](Oc2ccc(/C=C/c3cc(O)cc(O)c3)cc2)[C@H](O)[C@@H](O)[C@@H]1O`: the Drug metabolism entry in data set [1] is “Metabolite_Detected”.

By Cmax is commonly meant the highest concentration seen after dosing. One may read the logD as the decadic logarithm of the distribution of all forms, ionised or not, between an organic phase and buffer at a given pH. A high value points to higher lipophilicity. A word on the AUC(0-t): it is the area under the concentration-time curve up to a stated or last time point. The CL/F is the apparent clearance, not corrected for the fraction that reaches the circulation. The half-life is how long it takes for the measured level to halve. Higher therefore signals slow loss. For orientation: Tmax means the time from dosing to the highest level. As to `Oc1cc(O)cc(/C=C/C23CC(O)(C2)C3)c1`, the “CLH(app)” value worked out at 7.7 µL/min in data set [2] and 57.4 µL/min in [7]. The same compound had a peak concentration (Cmax) in [3] of 942 ng/mL. This compound also displayed a concentration at 4 h in [4] of 85 ng/mL. For the same compound, in data set [5], the logD at 2 h, 75 µM was 1.9. For the same compound, the AUC(0-t) at 4 h in data set [6] was 587 ng·h/mL. The CL/F in [8] is 21.8 L/h/kg. In addition, the half-life at 5 µM in data set [9] was 24.2 min; in data set [15] it was 90.4 min. In addition, the inhibition of growth at 30 µM with MDA-MB-231 [10] stood at 22%; in the data set on MIA PaCa-2 [11], 30%; in the data set with SU-DHL10 [12] it was 41%. In addition, in data set [13], the time to peak (Tmax) turned out to be 4.02 min. Further, the half-life in [14] is 156 min. For the same compound, the solubility thermodynamic at 1 h in data set [16] is 619 µg/mL (≈ 2840 µM).

Usually CC50 stands for the concentration at which the toxic effect on the cells reaches its halfway point. Consider `COc1ccc(C[C@H](N)C(=O)N[C@H]2[C@@H](O)[C@H](n3cnc4c(N(C)C)ncnc43)O[C@@H]2CO)cc1` [PUROMYCIN], for which the cytotoxic concentration (CC50) with SU-DHL10 [17] worked out at 0.11 µM; with MDA-MB-231 [18], 0.48 µM; in the data set with MIA PaCa-2 [19], 0.2 µM.

With `Oc1ccc(/C=C/c2cc(O)cc(O)c2)cc1` [RESVERATROL], the figures for the “CLH(app)” value in data set [2] and in data set [7] were 29.9 µL/min and over 184.8 µL/min, respectively. Further, the Cmax in data set [20] turned out to be 76.7 ng/mL; in data set [26], 273 ng/mL; in data set [27] it was 176 ng/mL. The pH-dependent lipophilicity (logD) at 2 h, 75 µM in data set [5] was 2.9. The Drug metabolism entry in [21] and in [28] was “Metabolite_Detected” in each case. Further, the apparent clearance (CL/F) in data set [22] is 409 L/h/kg. In addition, the Tmax in data set [23] was found to be 4.98 min. In [24], this compound had a half-life of 11.4 min. For the same compound, the exposure AUC(0-t) in data set [25] was found to be 47.5 ng·h/mL. Further, the half-life at 5 µM is under 7.5 min in data set [9] and 23.2 min in data set [15]. The figures for the inhibition of growth at 30 µM with MDA-MB-231 [10], in the data set on MIA PaCa-2 [11] and with SU-DHL10 [12] were 20%, 30% and 46%, respectively. Moreover, the solubility thermodynamic at 1 h in [16] stood at 19 µg/mL (≈ 83.2 µM).
